What follows are compounds tested against PKCθ (Homo sapiens, UniProt Q04759) (assay: PKCθ enzyme data at 1 mM ATP).
Format: biochemical

Sequence of PKCθ (Q04759 whole entry): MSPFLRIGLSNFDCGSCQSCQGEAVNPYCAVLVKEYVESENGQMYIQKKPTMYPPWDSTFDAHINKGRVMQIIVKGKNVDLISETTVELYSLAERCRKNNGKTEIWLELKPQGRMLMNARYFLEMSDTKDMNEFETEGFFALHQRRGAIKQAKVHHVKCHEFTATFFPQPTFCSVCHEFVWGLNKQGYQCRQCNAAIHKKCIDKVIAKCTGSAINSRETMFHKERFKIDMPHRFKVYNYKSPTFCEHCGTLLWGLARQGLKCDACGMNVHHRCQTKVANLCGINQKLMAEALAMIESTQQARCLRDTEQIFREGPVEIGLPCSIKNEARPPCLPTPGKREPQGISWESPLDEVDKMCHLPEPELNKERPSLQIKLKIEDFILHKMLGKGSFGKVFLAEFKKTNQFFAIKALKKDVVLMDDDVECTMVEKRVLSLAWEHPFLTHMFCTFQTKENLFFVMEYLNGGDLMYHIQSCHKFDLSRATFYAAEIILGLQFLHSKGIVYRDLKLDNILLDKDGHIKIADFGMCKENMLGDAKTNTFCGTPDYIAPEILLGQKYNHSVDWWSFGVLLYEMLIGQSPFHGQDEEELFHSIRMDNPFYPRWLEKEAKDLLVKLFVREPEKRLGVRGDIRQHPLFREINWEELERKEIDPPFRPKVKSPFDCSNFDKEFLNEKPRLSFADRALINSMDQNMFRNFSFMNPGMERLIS

Row | SMILES | IC50
1 | CN(C)Cc1ncc2n1CCN(c1nc(C3=C(c4c[nH]c5sccc45)C(=O)NC3=O)c3ccccc3n1)C2 [E.1.51] | < 100 nM
2 | O=C1NC(=O)C(c2c[nH]c3sccc23)=C1c1nc(N2CCN3CCCC3C2)nc2ccccc12 (stereo not drawn) [F.2.1] | < 100 nM
3 | COc1cccc2nc(N3CCN(C)CC3)nc(C3=C(c4c[nH]c5sccc45)C(=O)NC3=O)c12 [F.4.11] | 100 to 500 nM
4 | O=C1NC(=O)C(c2c[nH]c3ccsc23)=C1c1nc(N2CC3CNCC3C2)nc2ccccc12 (stereo not drawn) [G.1.3] | 500 to 1000 nM
5 | CN1CCN(c2nc(C3=C(c4c[nH]c5ccsc45)C(=O)NC3=O)c3c(F)cccc3n2)CC1 [F.3.1, 3-(5-Fluoro-2-(4-methylpiperazin-1-yl)quinazolin-4-yl)-4-(4H-thieno[3,2-b]pyrrol-6-yl)-1H-pyrrole-2,5-dione] | < 100 nM
6 | Cc1nnc2n1CCN(c1nc(C3=C(c4c[nH]c5sccc45)C(=O)NC3=O)c3ccccc3n1)C2 [E.1.40] | < 100 nM
7 | CN1CCN(c2cc3ccc(F)cc3c(C3=C(c4c[nH]c5sccc45)C(=O)NC3=O)n2)CC1 [F.4.34] | < 100 nM
8 | O=C1NC(=O)C(c2c[nH]c3ccsc23)=C1c1nc(N2CCC3(CCCNC3)C2)nc2ccccc12 (stereo not drawn) [G.1.6] | 100 to 500 nM
9 | CN1CCC(Cc2nc(C3=C(c4c[nH]c5sccc45)C(=O)NC3=O)c3ccccn23)CC1 [F.4.33] | 500 to 1000 nM
10 | NC1(C(=O)NC2CC2)CCN(c2nc(C3=C(c4c[nH]c5sccc45)C(=O)NC3=O)c3ccccc3n2)CC1 [E.1.58] | < 100 nM
11 | CC(C1CCN(c2nc(C3=C(c4c[nH]c5sccc45)C(=O)NC3=O)c3ccccc3n2)CC1)N1CCCC1 (stereo not drawn) [E.1.4] | 500 to 1000 nM
12 | CN(C)CCCn1nc(C2=C(c3c[nH]c4sccc34)C(=O)NC2=O)c2ccccc21 [F.4.29] | 100 to 500 nM
13 | CN1CCN(c2nc(C3=C(c4c[nH]c5sccc45)C(=O)NC3=O)c3ccccc3n2)CC1(C)C [E.1.24] | < 100 nM
14 | CN1CCC(Cn2cc(C3=C(c4c[nH]c5ccccc45)C(=O)NC3=O)c3ccsc32)CC1 [F.5.1] | < 100 nM
15 | Cc1cccc2c(C3=C(c4c[nH]c5sccc45)C(=O)NC3=O)nc(N3CCN(C)CC3)nc12 [F.4.32] | 500 to 1000 nM
16 | Cc1cccc2nc(N3CCN(C)CC3)nc(C3=C(c4c[nH]c5sccc45)C(=O)NC3=O)c12 [F.4.30] | < 100 nM
17 | CC(C1CCN(C)CC1)n1nc(C2=C(c3c[nH]c4sccc34)C(=O)NC2=O)c2ccccc21 (stereo not drawn) [F.4.35] | 500 to 1000 nM
18 | CNCC1CCN(c2nc(C3=C(c4c[nH]c5sccc45)C(=O)NC3=O)c3ccccc3n2)CC1 [G.1.15] | 100 to 500 nM
19 | CC(C)(CO)N1CCN(c2nc(C3=C(c4c[nH]c5sccc45)C(=O)NC3=O)c3ccccc3n2)CC1 [E.1.56] | < 100 nM

Row | SMILES | IC50
20 | Cc1ncc2n1CCN(c1nc(C3=C(c4c[nH]c5sccc45)C(=O)NC3=O)c3ccccc3n1)C2 [E.1.26] | < 100 nM
21 | Cn1cnc2c1CCN(c1nc(C3=C(c4c[nH]c5sccc45)C(=O)NC3=O)c3ccccc3n1)C2 [E.1.54] | < 100 nM
22 | CC(C1CCN(c2nc(C3=C(c4c[nH]c5sccc45)C(=O)NC3=O)c3ccccc3n2)CC1)N1CCOCC1 (stereo not drawn) [E.1.2] | 100 to 500 nM
23 | O=C1NC(=O)C(c2c[nH]c3ccsc23)=C1c1nc(N2CCC(N3CCOCC3)CC2)nc2ccccc12 [E.2.5] | 100 to 500 nM
24 | CN1CCC(C)(Cn2nc(C3=C(c4c[nH]c5sccc45)C(=O)NC3=O)c3ccccc32)CC1 [F.4.23] | 100 to 500 nM
25 | CN1CCN(c2nc(C3=C(c4c[nH]c5sccc45)C(=O)NC3=O)c3ccncc3n2)CC1 [F.4.24] | < 100 nM
26 | CN1CC[C@H](Cn2nc(C3=C(c4c[nH]c5sccc45)C(=O)NC3=O)c3ccccc32)[C@H](F)C1 (relative stereo) [F.4.4] | < 100 nM
27 | COCCN1CCC(Cn2nc(C3=C(c4c[nH]c5sccc45)C(=O)NC3=O)c3ccccc32)CC1 [F.4.21] | 100 to 500 nM
28 | O=C1NC(=O)C(c2c[nH]c3ccsc23)=C1c1nc(N2CCn3cnnc3C2)nc2ccccc12 [E.2.8] | 100 to 500 nM
29 | CN1CCC(n2nc(C3=C(c4c[nH]c5sccc45)C(=O)NC3=O)c3ccccc32)CC1 [F.4.7] | 100 to 500 nM
30 | CN1CCC(Cc2cn(C3=C(c4c[nH]c5sccc45)C(=O)NC3=O)c3ccccc23)CC1 [F.4.37] | < 100 nM
31 | O=C1NC(=O)C(c2c[nH]c3ccsc23)=C1c1nc(N2CCN3CCCC3C2)nc2ccccc12 (stereo not drawn) [E.2.10] | < 100 nM
32 | CN1CCC(Cn2nc(C3=C(c4c[nH]c5sccc45)C(=O)NC3=O)c3ccccc32)CC1 [F.4.6] | < 100 nM
33 | O=C1NC(=O)C(c2c[nH]c3sccc23)=C1c1nc(N2CCc3nc[nH]c3C2)nc2ccccc12 [E.1.27] | < 100 nM
34 | O=C1NC(=O)C(c2c[nH]c3ccsc23)=C1c1nc(N2CCNCC2)nc2ccccc12 [G.1.1, 3-(2-(piperazin-1-yl)quinazolin-4-yl)-4-(4H-thieno[3,2-b]pyrrol-6-yl)-1H-pyrrole-2,5-dione] | < 100 nM
35 | CC(C)(C)N1CCN(c2nc(C3=C(c4c[nH]c5sccc45)C(=O)NC3=O)c3ccccc3n2)CC1 [E.1.22] | < 100 nM
36 | Cc1cc2c(C3=C(c4nc(N5CCN(C)CC5)nc5ccccc45)C(=O)NC3=O)c[nH]c2s1 [F.1.3] | 100 to 500 nM
37 | CN(C)CCCCn1nc(C2=C(c3c[nH]c4sccc34)C(=O)NC2=O)c2ccccc21 [F.4.27] | 500 to 1000 nM

Further lines, results first:

Row | IC50 | SMILES
38 | 100 to 500 nM | CN1CCN(c2nc3c(c(C4=C(c5c[nH]c6sccc56)C(=O)NC4=O)n2)CCCC3)CC1 [F.4.16]
39 | < 100 nM | O=C1NC(=O)C(c2c[nH]c3sccc23)=C1c1nc(N2CCC(N3CCC3)CC2)nc2ccccc12 [E.1.13]
40 | < 100 nM | CC(C)N1CCN(c2nc(C3=C(c4c[nH]c5sccc45)C(=O)NC3=O)c3ccccc3n2)CC1 [E.1.21]
41 | < 100 nM | CN1CCN(C2CCN(c3nc(C4=C(c5c[nH]c6sccc56)C(=O)NC4=O)c4ccccc4n3)CC2)CC1 [E.1.8]
42 | < 100 nM | O=C1NC(=O)C(c2c[nH]c3sccc23)=C1c1nc(N2CCN3CCC[C@@H]3C2)nc2ccccc12 [E.1.1, (R)-3-(2-(Hexahydropyrrolo[1,2-a]pyrazin-2(1H)-yl)quinazolin-4-yl)-4-(6H-thieno[2,3-b]pyrrol-4-yl)-1H-pyrrole-2,5-dione]
43 | 100 to 500 nM | CC(C1CCN(c2nc(C3=C(c4c[nH]c5sccc45)C(=O)NC3=O)c3ccccc3n2)CC1)N(C)C (stereo not drawn) [E.1.12]
44 | 100 to 500 nM | COCCN1CCC(Cn2nc(C3=C(c4c[nH]c5sccc45)C(=O)NC3=O)c3ccccc32)C1 (stereo not drawn) [F.4.26]
45 | 100 to 500 nM | O=C1NC(=O)C(c2c[nH]c3sccc23)=C1c1nc(N2CCC3(CC2)CNC3)nc2ccccc12 [G.1.13]
46 | < 100 nM | CC1(N)CCN(c2nc(C3=C(c4c[nH]c5sccc45)C(=O)NC3=O)c3ccccc3n2)CC1 [G.1.10]
47 | < 100 nM | CN(C)C1CCN(c2nc(C3=C(c4c[nH]c5ccsc45)C(=O)NC3=O)c3ccccc3n2)CC1 [E.2.3]
48 | < 100 nM | CN(C)CC1CCN(c2nc(C3=C(c4c[nH]c5sccc45)C(=O)NC3=O)c3ccccc3n2)CC1 [E.1.5]
49 | < 100 nM | O=C1NC(=O)C(c2nc(N3CCN4CCC[C@@H]4C3)nc3cccc(F)c23)=C1c1c[nH]c2ccsc12 [F.3.2, (R)-3-(5-Fluoro-2-(hexahydropyrrolo[1,2-a]pyrazin-2(1H)-yl)quinazolin-4-yl)-4-(4H-thieno[3,2-b]pyrrol-6-yl)-1H-pyrrole-2,5-dione]
50 | 100 to 500 nM | O=C1NC(=O)C(c2c[nH]c3sccc23)=C1c1nc(N2CCC(O)(CN3CCCC3)CC2)nc2ccccc12 [E.1.25]
51 | < 100 nM | O=C1NC(=O)C(c2c[nH]c3sccc23)=C1c1nc(N2CCn3cncc3C2)nc2ccccc12 [E.1.46]
52 | < 100 nM | CN1CCN(c2nc(C3=C(c4c[nH]c5sccc45)C(=O)NC3=O)c3cccn3n2)CC1 [F.4.36]
53 | 100 to 500 nM | O=C1NC(=O)C(c2c[nH]c3sccc23)=C1c1nc(N2CCC(CN3CCOCC3)CC2)nc2ccccc12 [E.1.16]
54 | < 100 nM | CC(C)(O)CN1CCN(c2nc(C3=C(c4c[nH]c5sccc45)C(=O)NC3=O)c3ccccc3n2)CC1 [E.1.55]
55 | < 100 nM | CN(C)C1CCN(c2nc(C3=C(c4c[nH]c5sccc45)C(=O)NC3=O)c3ccccc3n2)CC1CO (stereo not drawn) [E.1.37]

Row | IC50 | SMILES
56 | < 100 nM | CN1CCN(c2cc(C3=C(c4c[nH]c5ccsc45)C(=O)NC3=O)c3ccccc3n2)CC1 [F.3.3]
57 | < 100 nM | O=C1NC(=O)C(c2nn(C[C@H]3CCNC[C@H]3F)c3ccccc23)=C1c1c[nH]c2sccc12 (relative stereo) [G.1.17]
58 | 500 to 1000 nM | O=C1NC(=O)C(c2c[nH]c3sccc23)=C1c1nc(N2CCN3C(=O)OCC3C2)nc2ccccc12 (stereo not drawn) [E.1.15]
59 | < 100 nM | Cn1cnc2c1CN(c1nc(C3=C(c4c[nH]c5sccc45)C(=O)NC3=O)c3ccccc3n1)CC2 [E.1.53]
60 | < 100 nM | O=C1NC(=O)C(c2c[nH]c3sccc23)=C1c1nc(N2CCC(CN3CCC3)CC2)nc2ccccc12 [E.1.17]
61 | 100 to 500 nM | O=C1NC(=O)C(c2c[nH]c3sccc23)=C1c1nc(N2CC[C@H](N3CCCC3)[C@H](F)C2)nc2ccccc12 [E.1.29]
62 | 100 to 500 nM | CN(C)[C@H]1CCN(c2nc(C3=C(c4c[nH]c5sccc45)C(=O)NC3=O)c3ccccc3n2)C[C@H]1F [E.1.33]
63 | 500 to 1000 nM | Cc1noc(C2CCN(c3nc(C4=C(c5c[nH]c6sccc56)C(=O)NC4=O)c4ccccc4n3)CC2)n1 [E.1.10]
64 | < 100 nM | CC(O)c1ncc2n1CCN(c1nc(C3=C(c4c[nH]c5sccc45)C(=O)NC3=O)c3ccccc3n1)C2 (stereo not drawn) [E.1.52]
65 | 100 to 500 nM | CN(C)CC1CCN(c2nc(C3=C(c4c[nH]c5sccc45)C(=O)NC3=O)c3ccccc3n2)C1 (stereo not drawn) [E.1.28]
66 | 500 to 1000 nM | O=C1NC(=O)C(c2c[nH]c3sccc23)=C1c1nc(N2CCC(n3ccnc3)C2)nc2ccccc12 (stereo not drawn) [E.1.23]
67 | < 100 nM | O=C1NC(=O)C(c2c[nH]c3sccc23)=C1c1nc(N2CCC23CCNCC3)nc2ccccc12 [E.1.36]
68 | < 100 nM | NC1(CO)CCN(c2nc(C3=C(c4c[nH]c5sccc45)C(=O)NC3=O)c3ccccc3n2)CC1 [E.1.57]
69 | 100 to 500 nM | CN(C)C1(C)CCN(c2nc(C3=C(c4c[nH]c5sccc45)C(=O)NC3=O)c3ccccc3n2)CC1 [E.1.41]
70 | < 100 nM | CN1CC[C@@H]2CN(c3nc(C4=C(c5c[nH]c6sccc56)C(=O)NC4=O)c4ccccc4n3)CC[C@@H]21 [E.1.59]
71 | < 100 nM | CCc1ncc2n1CCN(c1nc(C3=C(c4c[nH]c5sccc45)C(=O)NC3=O)c3ccccc3n1)C2 [E.1.47]
72 | < 100 nM | O=C1NC(=O)C(c2c[nH]c3sccc23)=C1c1nc(N2CCN3CCC[C@H]3C2)nc2sccc12 [E.3.1]

— US20110152243A1, “NOVEL THIENOPYRROLE COMPOUNDS” (ABBOTT LABORATORIES, priority 2009, published 2011)
